# Where two headings read alike, the source gives them in different places.
# Legend:
# [1] = tested on: Candida albicans ATCC 10259; experiment: In vitro susceptibility, microdilution broth MIC, C. albicans ATCC 10259; assay type: cell-based; settings: ATCC10259, 48 h
# Procedure: (§1) MIC tests were performed by a microdilution broth assay. The fungi tested were Candida albicans ATCC 10259 and strain B311, Cryptococcus neoformans ATCC 36556, Aspergillus fumigatus ATCC 13073, and Trichophyton rubrum ATCC 18762. The yeasts were propagated on yeast morphology agar, while the filamentous fungi were grown on Sabouraud's agar. All tests were performed in Sabouraud's broth in 96-well microliter plates, with compounds diluted serially, then inoculated with 2×10^4 cfu/ml for C. albicans, 4×10^4 cfu/ml for C. neoformans, 1×10^3 cfu/ml for A. fumigatus, and 1×10^3 cfu/ml for T. rubrum (all expressed as final concentrations). Plates were incubated at 30° C. for 48 h for all fungi except T. rubrum, which was incubated for 5 days. MIC's were read as the lowest concentration completely inhibiting growth. After MIC endpoints were determined, 50 ul portions were removed and plated on yeast morphology agar to detect viable organisms, and were incubated at 30° C. for 48 h. The MFC was determined to be the well with the lowest concentration resulting in no growth.
# [2] = tested on: Cryptococcus neoformans ATCC 36556; experiment: In vitro susceptibility, microdilution broth MIC, C. neoformans; assay type: cell-based; settings: ATCC36556, 48 h
# Procedure: as §1
# [3] = tested on: Aspergillus fumigatus ATCC 13073; experiment: In vitro susceptibility, microdilution broth MIC, A. fumigatus; assay type: cell-based; settings: ATCC13073, 48 h
# Procedure: as §1
# [4] = tested on: Candida albicans strain B311; experiment: In vitro susceptibility, microdilution broth MIC, C. albicans B311; assay type: cell-based; settings: Table 1a, Sabouraud's broth, 30° C., 48 h
# Procedure: as §1
# [5] = tested on: Trichophyton rubrum ATCC 18762; experiment: In vitro susceptibility, microdilution broth MIC, T. rubrum; assay type: cell-based; settings: ATCC18762, 120 h, Table 1a, Sabouraud's broth, 30° C., 5 days
# Procedure: as §1
# [6] = tested on: Candida albicans ATCC 10259; experiment: Minimum fungicidal concentration (MFC), C. albicans ATCC 10259; assay type: cell-based; settings: ATCC10259, 48 h, read-out: MIC (as headed), C. albicans 10259 (MFC)
# Procedure: as §1
# fungi = experiment: In vitro susceptibility tests (MIC and MFC), overall statements; assay type: cell-based; settings: Candida, Cryptococcus, Aspergillus, medically important fungi
# Procedure: as §1
# [7] = tested on: Candida albicans strain B311; experiment: Minimum fungicidal concentration (MFC), C. albicans B311; assay type: cell-based; settings: B311, 48 h, Table 1a, seventh value column, read-out: MIC (as headed), C. albicans B311 (MFC)
# Procedure: as §1
# [8] = tested on: dermal irritation and erythema, ear of ICR mice; experiment: Dermal toxicology (irritation) test in ICR mice; assay type: in vivo; settings: 10 mg topically
# Procedure: Thiarubrine A and a new 1,2-dithiin compound 3,6-bis(hydroxymethyl)-1,2-dithiin were tested for the ability to elicit dermal irritation in ICR mice. Animals in groups of five each were lightly anesthetized, then the test substance, previously dissolved in aquaphor, was applied in the amount of 10 mg topically to the dorsal aspect of the right ear. Aquaphor without test substance was applied to the left ear as a control. Animals were inspected daily for five days for signs of dermal irritation and erythema, which was scored subjectively on a scale from 1 to 15, with 15 indicating severe toxicity.
# [9] = Systemic toxicology test in ICR mice, intraperitoneal; assay type: in vivo; settings: mouse, in vivo, ip
# Procedure: (§2) Thiarubrine A and the novel 3,6-bis(hydroxymethyl)-1,2-dithiin have also been evaluated for their systemic toxicity potential. ICR mice, in groups of five or six each were injected with solutions of the test compound given intraperitoneally for three consecutive days for thiarubrine A and five consecutive days for the 1,2-dithiin. Animals were weighed daily and observed for mortalities over a 14 day period. An LD50 of 0.6 mg/kg for thiarubrine A was determined.
# ICR mice = experiment: as above; assay type: in vivo; settings: three consecutive days
# Procedure: as §2
# [10] = isolated from Aspilia mossambicesis and A. plurisetta; literature; cited from earlier work
# [11] = Table 1b, Sabouraud's broth, 30° C., read-out: MIC C. albicans 10259
# [12] = Table 1b, Sabouraud's broth, 30° C., read-out: MIC C. neoformans
# [13] = Table 1b, Sabouraud's broth, 30° C., read-out: MIC A. fumigatus
# [14] = Table 1a, Sabouraud's broth, 30° C., read-out: MIC C. albicans 10259
# [15] = Table 1a, Sabouraud's broth, 30° C., read-out: MIC C. neoformans
# [16] = Table 1a, Sabouraud's broth, 30° C., read-out: MIC A. fumigatus
Compound,"MIC [1, 11]","MIC [2, 12]","MIC [3, 13]","MIC [1, 14]","MIC [2, 15]","MIC [3, 16]",MFC ([6]; Table 1a),also measured
CC1=CC=C(CO)SS1 [Dithiin C],,,,12.5 µg/mL,,,,
"OCC1=CC=C(CO)SS1 [Dithiin A, 3,6-Bis(hydroxymethyl)-1,2-dithiin]",25 µg/mL,1.6 µg/mL,6.3 µg/mL,16 µg/mL,2 µg/mL,16 µg/mL,63 µg/mL,MIC [4]: 31 µg/mL; MIC [5]: 16 µg/mL; In vitro antifungal activity (in words) (fungi): potent broad spectrum antifungal activity
COCOCC1=CC=C(COCOC)SS1 [Dithiin D],,,,31 µg/mL,8 µg/mL,63 µg/mL,> 250 µg/mL,MIC [4]: 125 µg/mL; MIC [5]: 8 µg/mL; MFC [7]: 125 µg/mL
O=C(OCC1=CC=C(CO)SS1)C1CC1 [Dithiin J],3.1 µg/mL,1.6 µg/mL,0.8 µg/mL,,,,,
"O=CC1=CC=C(C=O)SS1 [Dithiin E, 3,6-Diformyl-1,2-dithiin]",,,,8 µg/mL,4 µg/mL,8 µg/mL,8 µg/mL,MIC [4]: 8 µg/mL; MIC [5]: 4 µg/mL; MFC [7]: 8 µg/mL
"C=CC#CC#CC1=CC=C(C#CC)SS1 [Thia A, thiarubrine A]",,,,,,,,"MIC ([1]; read-out: MIC C. albicans 10259, Table 1a, Sabouraud's broth, 30° C.): 0.15 µg/mL; MIC ([1]; read-out: MIC C. albicans 10259, Table 1b, Sabouraud's broth, 30° C.): 0.39 µg/mL; MIC ([2]; read-out: MIC C. neoformans, Table 1a, Sabouraud's broth, 30° C.): 0.61 µg/mL; MIC ([2]; read-out: MIC C. neoformans, Table 1b, Sabouraud's broth, 30° C.): 0.78 µg/mL; MIC ([3]; read-out: MIC A. fumigatus, Table 1a, Sabouraud's broth, 30° C.): 0.15 µg/mL; MIC ([3]; read-out: MIC A. fumigatus, Table 1b, Sabouraud's broth, 30° C.): 0.1 µg/mL; MFC [6]: 0.3 µg/mL; Dermal irritation and erythema ([8]; five days): pronounced toxicity; Average score for dermal irritation, treated ear, Day 3 ([8]; Day 3, scale 1 to 15): 7; Average score for dermal irritation, treated ear, Day 4 ([8]; Day 4, scale 1 to 15): 9; Average score for dermal irritation, treated ear, Day 5 ([8]; Day 5, scale 1 to 15, control ear 4): 9; Average score for dermal irritation, treated ear, Day 2 ([8]; first column pair of Table 2, headed Day 2, scale 1 to 15): 4; Average score for dermal irritation, treated ear, Day 2 ([8]; second column pair of Table 2, headed Day 2, scale 1 to 15): 6; LD50 at 336 h ([9]; three consecutive days, 14 day observation, read-out: LD50): 0.6 mg/kg; LD50 at 336 h ([9]; total dose over three days, read-out: LD50, total dose): ~1.8 mg/kg; Systemic toxicity (in words) (ICR mice): highly toxic; Biological activity (in words) [10]: wide spectrum of biological activity including antiviral and antibiotic activities"
C=CC#CC1=CC=C(C#CC#CC)SS1 [thiarubrine B],,,,,,,,Biological activity (in words) [10]: wide spectrum of biological activity including antiviral and antibiotic activities

# Second part, led by results:
"MIC [1, 11]","MIC [2, 12]","MIC [3, 13]","MIC [1, 14]","MIC [2, 15]","MIC [3, 16]",Compound,MFC ([6]; Table 1a),also measured
> 100 µg/mL,> 100 µg/mL,> 100 µg/mL,,,,"CC(C)C(=O)OCC1=CC=C(COC(=O)C(C)C)SS1 [Dithiin H, 3,6-Bis(isobutyryloxymethyl)-1,2-Dithiin]",,
6.3 µg/mL,3.1 µg/mL,1.6 µg/mL,,,,"O=C(OCC1=CC=C(COC(=O)C2CC2)SS1)C1CC1 [Dithiin I, 3,6-Bis(cyolopropanecarbonyloxymethyl)-1,2-dithiin]",,
12.5 µg/mL,6.3 µg/mL,3.1 µg/mL,,,,"CCC(=O)OCC1=CC=C(COC(=O)CC)SS1 [Dithiin G, 3,6-Bis(propionyloxymethyl)-1,2-dithiin]",,
3.1 µg/mL,0.8 µg/mL,0.2 µg/mL,3.1 µg/mL,0.8 µg/mL,0.4 µg/mL,"CC(=O)OCC1=CC=C(COC(C)=O)SS1 [Dithiin B, 3,6-Bis(acetyloxymethyl)-1,2-dithiin]",6.3 µg/mL,

# Reference: patent US5668168A, “1,2-dithiin antiinfective agents” (Shaman Pharmaceuticals, Inc., priority 1995, dated 1997)
